Data from article PMC7562955 (Nature Communications, 2020).
Where “and” joins values, the source holds several entries; their conditions need not be identical. Equal entries are not always repeated.

Experiments:
TLR1/2 [1] = target: T1, TLR1/2 (Homo sapiens, UniProt O60603+Q15399); assay: TNF-α production by human PBMC stimulated by TLR1/2 ligand Pam3CSK4 (ELISA); type: cell-based; conditions: for TLR2-dependent TNF-α production: 2.5 μM; for Mean TNF-α / TNF-α: activator PAM3CSK4, antagonist 2.5 μM; for Mean TNF-α: n = 3; for TNF-α: single replicate
T1 construct: Human Peripheral Blood Mononuclear cells (hPBMCs) were collected from healthy adult donors; endogenous in cells; host or cells: primary human PBMCs
Protocol: (§1) Human Peripheral Blood Mononuclear cells (hPBMCs) were collected from healthy adult donors. hPBMCs were cultured in round-bottom 96-well plates (BD Falcon, Durham, NC, USA) with a density of 5 × 10^5 cells/well. Plated cells were pretreated with DMSO or 2.5 μM inhibitors for 3 h and then stimulated by indicated ligands, such as R848 or TLR1/2 specific ligand Pam3CSK4 (Invivogen, HongKong, China), for 20 h in […] of RPMI 1640 medium (Gibco, Paisley, UK) supplemented with 10% FBS, Penicillin-Streptomycin-Glutamine (Gibco, Paisley, UK), 50 μM 2-ME medium at 37 °C in the presence of 5% CO2. Supernatants were collected to measure secreted cytokines by ELISA. Concentration of human IFN-α and TNF-α in the supernatants was measured with Verikine Human IFN-α Multi-Subtype Serum ELISA Kit (PBL Assay Science, Piscataway, NJ, USA) and Human TNF-α Uncoated ELISA (ThermoFisher Scientific, Carlsbad, CA, USA), respectively. This study was approved by the Research Ethics Committee of IMSUT (accession number: 30-100-B20190419).

TLR7 [2] = assay: Glutaraldehyde crosslinking assay of ligand-induced TLR7 dimerization; type: biochemical, Monkey (Macaca mulatta); conditions: for ligand-induced TLR7 dimerization: neutral or acidic pH
Protocol: The recombinant TLR7 proteins expressed in Drosophila S2 cells (Thermo Fisher Scientific) using Monkey (Macaca mulatta) TLR7 extracellular domain expression construct with N167Q, N399Q, N488Q and N799Q mutations and cleavable Z-loop and C-terminal protein A tag were prepared and were stored in a buffer containing 10 mM Tris-HCl pH 7.5 and 150 mM NaCl at concentrations of 10–15 mg ml^−1. Briefly, the purification steps included IgG affinity purification, the Z-loop and the protein A tag cleavage, and gel-filtration chromatography. Glycan-trimmed TLR7 proteins, expressed in the presence of 1.5 mg l^−1 kifunensine (Glycosyn) and treated by Endo Hf (New England Biolabs) were used for crystallization. Glycan-untrimmed proteins were used in ITC analysis, crosslinking assay, negative-staining EM and cryo-EM (200 kV microscopes) analyses. Glycan-trimmed TLR7 proteins with partially-uncleaved protein A tag were used for cryo-EM analysis using Tatan Krios (Supplementary Fig. 11).
For glutaraldehyde crosslinking assay (Fig. 2b), proteins were buffer exchanged into a buffer containing 10 mM HEPES-NaOH, pH 8.0, 150 mM NaCl and were concentrated to ~13 mg/ml using Amicon Ultra devices (Merck). Protein concentrations were adjusted to 25 µM using buffers containing 10 mM HEPES-NaOH, pH 7.0, 150 mM NaCl (for neutral condition) or 50 mM citrate-NaOH pH 5.0, 150 mM NaCl (for acidic condition). Cpd-3, Cpd-6 or Cpd-7 were added to final concentrations of 100 or 1000 µM. The reactions were started by adding glutaraldehyde (Wako) to a final concentration of 5 mM (for neutral condition) or 20 mM (for acidic condition), incubated at ambient temperature for 25 min and quenched by adding Tris-HCl pH 7.5 to a final concentration of 100 mM. Crosslinked samples were analyzed by non-reducing SDS-PAGE. Quantitative analysis of the SDS-PAGE gel image was performed with Image-J.

TLR1/2 [3] = target: T1, TLR1/2; assay: TNF-α production by human PBMC stimulated by TLR1/2 ligand Pam3CSK4 (ELISA); type: cell-based; conditions: human PBMCs, 2.5 μM
TLR7 [4] = target: T2, TLR7 (Homo sapiens, UniProt Q9NYK1); assay: TLR7 inhibition assay in primary human PBMCs (R848-induced IFN-α, ELISA); type: cell-based; parameters: Human Peripheral Blood Mononuclear cells (hPBMCs) were collected from healthy adult donors; endogenous in cells; host or cells: primary human PBMCs (plasmacytoid DCs produce the IFN-α); conditions: for R848-induced IFN-α production: 2.5 μM; for Mean IFN-α / IFN-α: antagonist 2.5 μM; for Mean IFN-α: n = 3; for IFN-α: single replicate
T2 sequence (Q9NYK1 27-1049): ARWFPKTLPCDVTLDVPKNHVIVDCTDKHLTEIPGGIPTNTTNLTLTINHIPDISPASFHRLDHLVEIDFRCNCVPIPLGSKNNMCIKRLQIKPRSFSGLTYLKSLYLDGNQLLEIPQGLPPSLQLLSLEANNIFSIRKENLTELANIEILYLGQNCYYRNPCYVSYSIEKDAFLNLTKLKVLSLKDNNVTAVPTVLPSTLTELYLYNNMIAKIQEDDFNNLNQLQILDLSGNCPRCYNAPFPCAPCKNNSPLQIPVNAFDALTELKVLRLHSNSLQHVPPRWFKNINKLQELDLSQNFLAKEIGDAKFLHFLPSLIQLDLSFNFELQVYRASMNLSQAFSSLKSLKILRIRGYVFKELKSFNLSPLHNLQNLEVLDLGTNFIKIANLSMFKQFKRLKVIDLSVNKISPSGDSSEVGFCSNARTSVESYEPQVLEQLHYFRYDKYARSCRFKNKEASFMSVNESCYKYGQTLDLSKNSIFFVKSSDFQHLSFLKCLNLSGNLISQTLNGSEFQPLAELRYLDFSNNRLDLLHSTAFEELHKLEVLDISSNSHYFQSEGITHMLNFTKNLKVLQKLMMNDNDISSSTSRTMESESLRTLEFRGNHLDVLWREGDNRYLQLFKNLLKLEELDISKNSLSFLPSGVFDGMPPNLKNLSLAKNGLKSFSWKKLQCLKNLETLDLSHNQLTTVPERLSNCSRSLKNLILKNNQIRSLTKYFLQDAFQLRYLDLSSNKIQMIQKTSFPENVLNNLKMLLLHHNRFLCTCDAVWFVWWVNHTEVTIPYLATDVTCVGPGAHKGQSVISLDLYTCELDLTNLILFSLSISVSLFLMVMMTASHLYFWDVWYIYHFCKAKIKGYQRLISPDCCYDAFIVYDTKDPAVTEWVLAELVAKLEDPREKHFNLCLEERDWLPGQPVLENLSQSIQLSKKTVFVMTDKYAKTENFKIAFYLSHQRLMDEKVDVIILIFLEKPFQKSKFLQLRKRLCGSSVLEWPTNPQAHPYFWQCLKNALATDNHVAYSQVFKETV
Protocol: as §1

[5] = pH 5.0, ligand + (100 or 1000 µM used)
[6] = pH 5.0, ligand ++ (100 or 1000 µM used)
[7] = pH 7.0, ligand + (100 or 1000 µM used)
[8] = pH 7.0, ligand ++ (100 or 1000 µM used)

T1 sequence (Q15399 25-786): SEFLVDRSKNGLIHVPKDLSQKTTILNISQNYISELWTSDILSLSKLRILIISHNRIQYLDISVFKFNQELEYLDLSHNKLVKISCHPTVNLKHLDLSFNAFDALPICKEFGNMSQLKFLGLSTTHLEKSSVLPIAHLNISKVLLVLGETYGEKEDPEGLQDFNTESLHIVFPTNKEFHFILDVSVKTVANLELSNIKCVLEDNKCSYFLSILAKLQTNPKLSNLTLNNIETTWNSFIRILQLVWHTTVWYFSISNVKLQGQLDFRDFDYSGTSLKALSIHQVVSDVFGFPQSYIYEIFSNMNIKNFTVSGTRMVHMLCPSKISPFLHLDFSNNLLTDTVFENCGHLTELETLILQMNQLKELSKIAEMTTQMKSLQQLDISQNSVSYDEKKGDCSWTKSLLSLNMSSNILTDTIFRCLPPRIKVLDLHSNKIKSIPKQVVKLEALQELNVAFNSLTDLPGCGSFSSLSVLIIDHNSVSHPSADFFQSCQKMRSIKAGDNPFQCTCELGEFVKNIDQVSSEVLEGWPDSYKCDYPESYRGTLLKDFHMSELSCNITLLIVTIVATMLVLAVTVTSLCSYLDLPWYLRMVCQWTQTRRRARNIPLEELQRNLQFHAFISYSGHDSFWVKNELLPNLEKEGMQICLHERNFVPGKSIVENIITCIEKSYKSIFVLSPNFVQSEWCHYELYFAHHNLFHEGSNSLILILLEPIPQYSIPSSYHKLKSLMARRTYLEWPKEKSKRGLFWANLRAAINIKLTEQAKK
T1 sequence (O60603 19-784 limits assumed): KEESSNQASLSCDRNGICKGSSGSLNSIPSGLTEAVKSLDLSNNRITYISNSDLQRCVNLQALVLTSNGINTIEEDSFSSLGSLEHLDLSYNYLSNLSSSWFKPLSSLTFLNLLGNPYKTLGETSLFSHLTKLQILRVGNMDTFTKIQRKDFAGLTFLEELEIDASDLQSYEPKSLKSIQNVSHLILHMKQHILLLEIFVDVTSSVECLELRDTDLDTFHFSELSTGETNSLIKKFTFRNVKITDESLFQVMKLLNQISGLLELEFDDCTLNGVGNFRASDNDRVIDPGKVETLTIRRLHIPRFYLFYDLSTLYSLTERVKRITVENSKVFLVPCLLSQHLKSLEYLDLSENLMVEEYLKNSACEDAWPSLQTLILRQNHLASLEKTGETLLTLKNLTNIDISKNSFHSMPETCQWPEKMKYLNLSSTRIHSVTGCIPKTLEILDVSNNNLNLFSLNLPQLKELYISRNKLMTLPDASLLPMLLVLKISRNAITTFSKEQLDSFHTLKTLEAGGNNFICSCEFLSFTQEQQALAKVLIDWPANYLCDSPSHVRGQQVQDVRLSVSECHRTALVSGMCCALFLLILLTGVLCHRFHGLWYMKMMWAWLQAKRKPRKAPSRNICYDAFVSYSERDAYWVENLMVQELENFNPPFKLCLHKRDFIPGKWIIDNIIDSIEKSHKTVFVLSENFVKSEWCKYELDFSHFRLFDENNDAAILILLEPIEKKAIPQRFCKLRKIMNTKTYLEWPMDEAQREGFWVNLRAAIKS

Structure (SMILES): CCOc1nc(N)c2nc(-c3cncc(F)c3)n(Cc3ccc(CN4C[C@@H]5C[C@H]4CN5C)cc3)c2n1 [Cpd-6]
- TLR2-dependent TNF-α production (TLR1/2 [1]): neither Cpd-6 nor Cpd-7 blocked
- Mean TNF-α (TLR1/2 [1]): 2207.35 pg/mL
- TNF-α (TLR1/2 [1]): 2553.64 pg/mL and 2237.72 pg/mL and 1830.68 pg/mL
- ligand-induced TLR7 dimerization (TLR7 [2]): increased only in acidic conditions
- Band intensity Dimer (TLR7 [2]; [5]): 8170.97
- Band intensity Monomer (TLR7 [2]; [5]): 16240
- Band intensity Dimer (TLR7 [2]; [6]): 8032.26
- Band intensity Monomer (TLR7 [2]; [6]): 12976
- Band intensity Dimer (TLR7 [2]; [7]): 10536.9
- Band intensity Monomer (TLR7 [2]; [7]): 14418
- Band intensity Dimer (TLR7 [2]; [8]): 14285.1
- Band intensity Monomer (TLR7 [2]; [8]): 11832.4
- cytotoxicity (TLR1/2 [3]): not cytotoxic
- R848-induced IFN-α production (TLR7 [4]): completely blocked
- Mean IFN-α (TLR7 [4]; activator None): 0 pg/mL
- IFN-α (TLR7 [4]; activator None): 0 pg/mL
- Mean IFN-α (TLR7 [4]; activator R848 (200 nM)): 0 pg/mL
- IFN-α (TLR7 [4]; activator R848 (200 nM)): 0 pg/mL

Structure (SMILES): CCOc1nc(C)c2nc(-c3cncc(F)c3)n(Cc3ccc(CN4C[C@@H]5C[C@H]4CN5C)cc3)c2n1 [Cpd-7]
- TLR2-dependent TNF-α production (TLR1/2 [1]): neither Cpd-6 nor Cpd-7 blocked
- Mean TNF-α (TLR1/2 [1]): 2407.5 pg/mL
- TNF-α (TLR1/2 [1]): 2596.39 pg/mL and 2051.11 pg/mL and 2574.99 pg/mL
- ligand-induced TLR7 dimerization (TLR7 [2]): increased only in acidic conditions
- Band intensity Dimer (TLR7 [2]; [5]): 8301.55
- Band intensity Monomer (TLR7 [2]; [5]): 16518.6
- Band intensity Dimer (TLR7 [2]; [6]): 8600.5
- Band intensity Monomer (TLR7 [2]; [6]): 15510.2
- Band intensity Dimer (TLR7 [2]; [7]): 9334.79
- Band intensity Monomer (TLR7 [2]; [7]): 16326.2
- Band intensity Dimer (TLR7 [2]; [8]): 12602.5
- Band intensity Monomer (TLR7 [2]; [8]): 14640.4
- cytotoxicity (TLR1/2 [3]): not cytotoxic
- R848-induced IFN-α production (TLR7 [4]): completely blocked
- Mean IFN-α (TLR7 [4]; activator None): 0 pg/mL
- IFN-α (TLR7 [4]; activator None): 0 pg/mL
- Mean IFN-α (TLR7 [4]; activator R848 (200 nM)): 0 pg/mL
- IFN-α (TLR7 [4]; activator R848 (200 nM)): 0 pg/mL
